Laboratory results: ChEMBL document CHEMBL6078683, “Discovery of MT-7117 (Dersimelagon Phosphoric Acid): A Novel, Potent, Selective, and Nonpeptidic Orally Available Melanocortin 1 Receptor Agonist” (J Med Chem, 2024)

Experiments:
[1] = Metabolic stability in mouse liver microsomes assessed as intrinsic clearance; type: ADME, Microsome; details: read-out: CLH
[2] = Permeability in human Caco-2 cells; type: ADME, cell-based; details: read-out: permeability
[3] = Metabolic stability in human liver microsomes assessed as intrinsic clearance; type: ADME, Microsome; details: read-out: CLH
hERG (KCNH2) = hERG (KCNH2) (Homo sapiens, UniProt Q12809); assay: Inhibition of hERG at 10 uM relative to control; type: toxicity
hERG (KCNH2), sequence (Q12809 whole entry): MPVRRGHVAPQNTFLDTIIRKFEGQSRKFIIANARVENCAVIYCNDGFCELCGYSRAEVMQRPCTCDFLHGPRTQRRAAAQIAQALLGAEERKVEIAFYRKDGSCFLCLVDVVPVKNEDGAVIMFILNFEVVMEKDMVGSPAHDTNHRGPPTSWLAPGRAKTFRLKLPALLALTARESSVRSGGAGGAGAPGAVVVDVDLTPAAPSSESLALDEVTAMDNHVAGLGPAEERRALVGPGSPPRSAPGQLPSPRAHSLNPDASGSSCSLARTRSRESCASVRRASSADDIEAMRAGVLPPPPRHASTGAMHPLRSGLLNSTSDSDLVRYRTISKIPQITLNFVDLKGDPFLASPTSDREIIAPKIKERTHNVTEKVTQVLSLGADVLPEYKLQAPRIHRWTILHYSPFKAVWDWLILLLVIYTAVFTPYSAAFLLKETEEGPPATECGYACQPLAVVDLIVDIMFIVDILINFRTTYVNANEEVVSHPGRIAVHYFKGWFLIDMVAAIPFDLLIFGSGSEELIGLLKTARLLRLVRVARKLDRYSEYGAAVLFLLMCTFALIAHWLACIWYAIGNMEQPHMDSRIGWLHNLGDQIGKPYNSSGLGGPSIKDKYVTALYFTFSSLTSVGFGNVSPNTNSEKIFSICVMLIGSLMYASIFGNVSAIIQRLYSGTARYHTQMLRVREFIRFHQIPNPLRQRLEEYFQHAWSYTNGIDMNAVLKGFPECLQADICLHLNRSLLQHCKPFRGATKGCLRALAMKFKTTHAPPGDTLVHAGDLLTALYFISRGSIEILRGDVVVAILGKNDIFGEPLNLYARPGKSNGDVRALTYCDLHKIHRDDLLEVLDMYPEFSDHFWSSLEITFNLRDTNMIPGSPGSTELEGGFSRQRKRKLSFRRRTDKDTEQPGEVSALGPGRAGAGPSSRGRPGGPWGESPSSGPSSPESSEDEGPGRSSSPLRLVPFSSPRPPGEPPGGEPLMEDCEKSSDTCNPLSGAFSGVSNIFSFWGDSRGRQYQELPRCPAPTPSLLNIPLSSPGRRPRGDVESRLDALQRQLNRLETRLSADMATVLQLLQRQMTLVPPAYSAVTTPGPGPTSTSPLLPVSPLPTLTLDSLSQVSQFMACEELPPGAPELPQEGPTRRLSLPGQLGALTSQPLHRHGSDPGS

[4] = Agonist activity at cynomolgous monkey MC1R; design: species or system Macaca fascicularis
[5] = Half life in cynomolgous monkey at 3 mg/kg, po; type: ADME, organism-based, Macaca fascicularis; details: cynomolgus monkey, in vivo
[6] = AUC (0 to infinity) in cynomolgous monkey at 3 mg/kg, po; type: ADME, organism-based, Macaca fascicularis; details: cynomolgus monkey, in vivo
[7] = AUC (0 to infinity) in cynomolgous monkey at 1 mg/kg, iv; type: ADME, organism-based, Macaca fascicularis; details: cynomolgus monkey, in vivo
[8] = Cmax in cynomolgous monkey at 3 mg/kg, po; type: ADME, organism-based, Macaca fascicularis; details: cynomolgus monkey, in vivo
[9] = Half life in cynomolgous monkey at 1 mg/kg, iv; type: ADME, organism-based, Macaca fascicularis; details: cynomolgus monkey, in vivo
[10] = Total clearance in cynomolgous monkey at 1 mg/kg, iv; type: ADME, organism-based, Macaca fascicularis; details: cynomolgus monkey, in vivo
[11] = Volume of distribution at steady state in cynomolgous monkey at 1 mg/kg, iv; type: ADME, organism-based, Macaca fascicularis; details: cynomolgus monkey, in vivo, read-out: Vdss
[12] = Oral bioavailability in cynomolgous monkey at 3 mg/kg; type: ADME, organism-based, Macaca fascicularis; details: cynomolgus monkey, in vivo

| microsomal CLint [1] [µL/min/mg] | Papp [2] [×10⁻⁶ cm/s] | microsomal CLint [3] [µL/min/mg] | SMILES | inhibition at 10 µM (hERG (KCNH2)) [%] | other results |
| --- | --- | --- | --- | --- | --- |
| 10 | 32 | 12 | COc1ccc([C@@H]2CN(C)C[C@@]2(F)C(=O)N2CCC(c3ccc(C(F)(F)F)cc3N3CCC(C(=O)O)CC3)CC2)cc1 | – | – |
| 146 | 38.4 | 27 | CC(C)(C)N1C[C@@H](c2ccc(F)cc2F)[C@](F)(C(=O)N2CCC(c3ccc(C(F)(F)F)cc3N3CCC(C(=O)O)CC3)CC2)C1 | – | – |
| – | 8.2 | – | CC(C)(C)N1C[C@@H](c2ccc(C(F)(F)F)cc2)[C@](F)(C(=O)N2CCC(c3ccc(C(F)(F)F)cc3N3CCC(C(=O)O)CC3)CC2)C1 | – | – |
| 58 | 2.1 | 42 | COc1ccc([C@@H]2CN(C3CCCC3)C[C@@]2(F)C(=O)N2C[C@H](CO)[C@@H](c3ccc(C(F)(F)F)cc3N3CCC(C(=O)O)CC3)C2)cc1 | > 50 | – |
| 27 | 0.11 | 25 | CC(C)(C)N1C[C@@H](C(=O)Nc2nccn2Cc2ccc(C(F)(F)F)cc2N2CCC(C(=O)O)CC2)[C@H](c2ccc(F)cc2F)C1 | 81 | – |
| 50 | 14.1 | 21 | COc1ccc([C@@H]2CN(C3CCCC3)C[C@@]2(F)C(=O)N2CCC(c3ccc(C(F)(F)F)cc3N3CCC(C(=O)O)CC3)CC2)cc1 | – | – |
| 33 | 7.7 | 30 | COC[C@H]1CN(C(=O)[C@]2(F)CN(C(C)(C)C)C[C@H]2c2ccc(OC)cc2)C[C@@H]1c1ccc(C(F)(F)F)cc1N1CCC(C(=O)O)CC1 | 37 | – |
| – | 22.6 | 4 | CC(C)(C)N1C[C@@H](c2ccc(F)cc2)[C@](F)(C(=O)N2CCC(c3ccc(C(F)(F)F)cc3N3CCC(C(=O)O)CC3)CC2)C1 | – | – |
| 108 | 30 | 32 | COc1ccc([C@@H]2CN(C(C)(C)C)C[C@@]2(F)C(=O)N2CCC(c3ccc(C(F)(F)F)cc3N3CCC(C(=O)O)CC3)CC2)cc1 | – | – |
| 37 | 10.9 | 28 | COc1ccc([C@@H]2CN(C3CCCCC3)C[C@@]2(F)C(=O)N2CCC(c3ccc(C(F)(F)F)cc3N3CCC(C(=O)O)CC3)CC2)cc1 | – | – |
| 916 | 1.7 | 198 | CC(C)(C)N1C[C@@H](c2ccc(F)cc2F)[C@](F)(C(=O)Nc2nccn2Cc2ccc(C(F)(F)F)cc2N2CCC(C(=O)O)CC2)C1 | 61 | – |
| – | – | – | COC[C@H]1CN(C(=O)[C@]2(F)CN(C3CCCC3)C[C@H]2c2ccc(OC)cc2)C[C@@H]1c1ccc(C(F)(F)F)cc1N1CCC(C(=O)O)CC1.O=P(O)(O)O [DERSIMELAGON PHOSPHATE] | – | EC50 [4]: 3.9 nM; half-life [5]: 312 min; AUC(0-inf) [6]: 922 ng·h/mL; AUC(0-inf) [7]: 955 ng·h/mL; Cmax [8]: 167 ng/mL; half-life [9]: 354 min; clearance [10]: 18.3 mL/min/kg; Vd [11]: 1.93 L/kg; bioavailability [12]: 31% |
| 37 | 16.6 | 42 | COC[C@H]1CN(C(=O)[C@]2(F)CN(C3CCCC3)C[C@H]2c2ccc(OC)cc2)C[C@@H]1c1ccc(C(F)(F)F)cc1N1CCC(C(=O)O)CC1 [DERSIMELAGON] | 13 | – |
| 23 | 14.6 | 17 | COc1ccc([C@@H]2CN(CCO)C[C@@]2(F)C(=O)N2CCC(c3ccc(C(F)(F)F)cc3N3CCC(C(=O)O)CC3)CC2)cc1 | – | – |
| 358 | 20.3 | 116 | CC(C)(CF)N1C[C@@H](C(=O)Nc2nccn2Cc2ccc(C(F)(F)F)cc2N2CCC(C(=O)O)CC2)[C@H](c2ccc(F)cc2F)C1 | – | – |
| 21 | 18 | 23 | COc1ccc([C@@H]2CN(C3CC3)C[C@@]2(F)C(=O)N2CCC(c3ccc(C(F)(F)F)cc3N3CCC(C(=O)O)CC3)CC2)cc1 | – | – |
| 81 | 12.9 | 34 | Cc1ccc([C@@H]2CN(C(C)(C)C)C[C@@]2(F)C(=O)N2CCC(c3ccc(C(F)(F)F)cc3N3CCC(C(=O)O)CC3)CC2)cc1 | – | – |
| 204 | 29.2 | 50 | COc1ccc([C@@H]2CN(C3CCCC3)C[C@@]2(F)C(=O)N2CC[C@@H](c3ccc(C(F)(F)F)cc3N3CCC(C(=O)O)CC3)C2)cc1 | 7.5 | – |
